Where “and” joins values, the source holds several entries; their conditions need not be identical. Equal entries are not always repeated. Inconclusive results and toxic doses are left out. No stated cut-off is given here; in the data, active means T/C of 150% or more; inactive means T/C below 125%.
Tested on: L1210 leukemia ip in BDF1 mice, survival T/C
Experiment: NCI In Vivo Anticancer Drug Screen. Data for tumor model L1210 Leukemia (intraperitoneal) in B6D2F1 (BDF1) mice
Conditions: endpoint: mean survival time, higher = longer survival
Procedure, shortened: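 Tumor was transplanted into mice, which were then dosed with test compound or vehicle alone. Survival was recorded for each group, and the treated figure was expressed relative to the control figure.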

[1] = dose: 100.0 mg/kg/injection, schedule: Q04DX002 (ip), vehicle: saline with Tween-80
[2] = dose: 200.0 mg/kg/injection, schedule: Q04DX002 (ip), vehicle: saline with Tween-80
[3] = dose: 400.0 mg/kg/injection, schedule: Q04DX002 (ip), vehicle: saline with Tween-80
[4] = dose: 100.0 mg/kg/injection, schedule: Q04DX003 (ip), vehicle: Klucel (hydroxypropylcellulose) (HPC)
[5] = dose: 200.0 mg/kg/injection, schedule: Q04DX003 (ip), vehicle: Klucel (hydroxypropylcellulose) (HPC)
[6] = dose: 400.0 mg/kg/injection, schedule: Q04DX003 (ip), vehicle: Klucel (hydroxypropylcellulose) (HPC)
[7] = dose: 100.0 mg/kg/injection, schedule: Q01DX001 (ip), vehicle: saline with Tween-80
[8] = dose: 100.0 mg/kg/injection, schedule: Q04DX003 (ip), vehicle: saline with Tween-80
[9] = dose: 200.0 mg/kg/injection, schedule: Q01DX001 (ip), vehicle: saline with Tween-80
[10] = dose: 200.0 mg/kg/injection, schedule: Q04DX003 (ip), vehicle: saline with Tween-80
[11] = dose: 400.0 mg/kg/injection, schedule: Q01DX001 (ip), vehicle: saline with Tween-80
[12] = dose: 400.0 mg/kg/injection, schedule: Q04DX003 (ip), vehicle: saline with Tween-80
[13] = dose: 100.0 mg/kg/injection, schedule: Q01DX001 (ip), vehicle: saline
[14] = dose: 200.0 mg/kg/injection, schedule: Q01DX001 (ip), vehicle: saline
[15] = dose: 400.0 mg/kg/injection, schedule: Q01DX001 (ip), vehicle: saline
[16] = dose: 100.0 mg/kg/injection, schedule: Q04DX002 (ip), vehicle: Klucel (hydroxypropylcellulose) (HPC)
[17] = dose: 200.0 mg/kg/injection, schedule: Q04DX002 (ip), vehicle: Klucel (hydroxypropylcellulose) (HPC)
[18] = dose: 400.0 mg/kg/injection, schedule: Q04DX002 (ip), vehicle: Klucel (hydroxypropylcellulose) (HPC)
[19] = dose: 100.0 mg/kg/injection, schedule: Q01DX009 (ip), vehicle: saline with Tween-80
[20] = dose: 200.0 mg/kg/injection, schedule: Q01DX009 (ip), vehicle: saline with Tween-80
[21] = dose: 400.0 mg/kg/injection, schedule: Q01DX009 (ip), vehicle: saline with Tween-80
[22] = dose: 100.0 mg/kg/injection, schedule: Q01DX009 (ip), vehicle: Klucel (hydroxypropylcellulose) (HPC)
[23] = dose: 200.0 mg/kg/injection, schedule: Q01DX009 (ip), vehicle: Klucel (hydroxypropylcellulose) (HPC)
[24] = dose: 25.0 mg/kg/injection, schedule: Q04DX002 (ip), vehicle: saline with Tween-80
[25] = dose: 50.0 mg/kg/injection, schedule: Q04DX002 (ip), vehicle: saline with Tween-80
[26] = dose: 100.0 mg/kg/injection, schedule: Q04DX003 (ip), vehicle: saline
[27] = dose: 200.0 mg/kg/injection, schedule: Q04DX003 (ip), vehicle: saline

Measured: T/C

NS(=O)(=O)c1ccc(N=NN2CCOCC2)cc1
inactive: [1] 115 % of control | [2] 108 % of control | [3] 115 % of control

O=C(O)c1ccccc1C(=O)c1ccc(Br)cc1
inactive: [4] 93 % of control | [5] 96 % of control | [6] 104 % of control

Cc1cccc(NC(=S)NC(=O)CCc2ccccc2)c1C
inactive: dose: 25.0 mg/kg/injection, schedule: Q01DX009 (ip), vehicle: saline with Tween-80 94 % of control and 88 % of control | dose: 50.0 mg/kg/injection, schedule: Q01DX009 (ip), vehicle: saline with Tween-80 94 % of control and 88 % of control | [7] 95 % of control | [1] 95 % of control and 90 % of control | [8] 86 % of control | [9] 98 % of control | [2] 93 % of control | [10] 89 % of control | [11] 97 % of control | [3] 93 % of control and 102 % of control | [12] 86 % of control

CCCCCCCCCCSCCO
inactive: [13] 102 % of control | [14] 102 % of control | [15] 97 % of control

O=C(COc1ccc(Cl)cc1Cl)Nc1c(Cl)cc(Cl)cc1Cl
inactive: [16] 99 % of control | [17] 108 % of control | [18] 86 % of control

O=C(Nc1cccc(O)c1)Oc1cccc(Cl)c1
inactive: [19] 98 % of control | [20] 102 % of control | [21] 106 % of control

OC(c1ccccc1)(c1c2ccccc2cc2ccccc12)C1CCC1 (stereo not given)
inactive: [22] 101 % of control | [4] 110 % of control | [23] 102 % of control | [5] 91 % of control | dose: 400.0 mg/kg/injection, schedule: Q01DX009 (ip), vehicle: Klucel (hydroxypropylcellulose) (HPC) 96 % of control | [6] 110 % of control

COc1cc2c(cc1OC)C(C)=[N+](C)CC2
inactive: dose: 12.5 mg/kg/injection, schedule: Q04DX003 (ip), vehicle: Klucel (hydroxypropylcellulose) (HPC) 101 % of control | dose: 25.0 mg/kg/injection, schedule: Q04DX003 (ip), vehicle: Klucel (hydroxypropylcellulose) (HPC) 103 % of control | dose: 50.0 mg/kg/injection, schedule: Q04DX003 (ip), vehicle: Klucel (hydroxypropylcellulose) (HPC) 106 % of control

O=C1c2nc3ccccc3nc2C(=O)N1O
inactive: [22] 107 % of control | [23] 100 % of control

O=C(Nc1ccccc1)OCC(OC(=O)Nc1ccccc1)C(COC(=O)Nc1ccccc1)OC(=O)Nc1ccccc1 (stereo not given)
inactive: [24] 100 % of control | [25] 100 % of control | [1] 92 % of control | [3] 88 % of control

O=c1[nH][n+]([O-])cc2c(C(O)=C(O)O)c[nH]c12
inactive: [24] 94 % of control | [25] 98 % of control | [1] 105 % of control

O=c1c2[nH]c3cccc(Cl)c3c2cnn1-c1ccc(F)cc1
inactive: dose: 100.0 mg/kg/injection, schedule: Q01DX001 (ip), vehicle: Klucel (hydroxypropylcellulose) (HPC) 96 % of control | dose: 200.0 mg/kg/injection, schedule: Q01DX001 (ip), vehicle: Klucel (hydroxypropylcellulose) (HPC) 104 % of control | dose: 400.0 mg/kg/injection, schedule: Q01DX001 (ip), vehicle: Klucel (hydroxypropylcellulose) (HPC) 104 % of control

CC(=O)O[C@@]1(C)[C@@H](C)C(=O)O[C@@H]2CCN3CC=C(COC(=O)[C@]1(C)O)[C@H]23
inactive: dose: 6.25 mg/kg/injection, schedule: Q01DX009 (ip), vehicle: other 97 % of control | dose: 12.5 mg/kg/injection, schedule: Q01DX009 (ip), vehicle: other 94 % of control | dose: 25.0 mg/kg/injection, schedule: Q01DX009 (ip), vehicle: other 120 % of control | dose: 25.0 mg/kg/injection, schedule: Q01DX009 (ip), vehicle: saline 114 % of control | dose: 50.0 mg/kg/injection, schedule: Q01DX009 (ip), vehicle: carboxymethylcellulose (CMC) 124 % of control | dose: 100.0 mg/kg/injection, schedule: Q01DX009 (ip), vehicle: carboxymethylcellulose (CMC) 118 % of control

Cc1cc(O)c(C(N)=O)c(=O)[nH]1
inactive: [13] 95 % of control | [14] 98 % of control | [15] 101 % of control

O=C(OC1COC(Br)C(OC(=O)c2ccc([N+](=O)[O-])cc2)C1OC(=O)c1ccc([N+](=O)[O-])cc1)c1ccc([N+](=O)[O-])cc1 (stereo not given)
inactive: [13] 98 % of control | [14] 96 % of control | [15] 91 % of control

COc1cccc[n+]1[O-]
inactive: dose: 50.0 mg/kg/injection, schedule: Q01DX009 (ip), vehicle: saline 94 % of control | dose: 100.0 mg/kg/injection, schedule: Q01DX009 (ip), vehicle: saline 101 % of control | [26] 96 % of control | dose: 200.0 mg/kg/injection, schedule: Q01DX009 (ip), vehicle: saline 89 % of control | [27] 92 % of control

C=CCC(O)CCC (stereo not given)
inactive: [19] 89 % of control | [8] 97 % of control | [20] 90 % of control | [10] 100 % of control | [21] 89 % of control | [12] 100 % of control

O=C(Nc1ccc([As](=O)(O)O)cc1)Nc1cccc(Cl)c1Cl
inactive: [22] 100 % of control | [16] 100 % of control | [23] 100 % of control | [17] 92 % of control | [18] 110 % of control

NC1=NC(c2ccc(Cl)cc2)N(c2ccc(S(=O)(=O)Nc3ncccn3)cc2)C(N)=N1 (stereo not given)
inactive: [26] 103 % of control | [27] 96 % of control | dose: 400.0 mg/kg/injection, schedule: Q04DX003 (ip), vehicle: saline 100 % of control

COC(=O)C(Br)CCBr (stereo not given)
inactive: [19] 94 % of control | [8] 94 % of control | [20] 95 % of control | [10] 101 % of control | [21] 100 % of control | [12] 105 % of control

O=C(CCl)c1ccccc1
inactive: dose: 100.0 mg/kg/injection, schedule: Q01DX001 (ip), vehicle: carboxymethylcellulose (CMC) 91 % of control | dose: 200.0 mg/kg/injection, schedule: Q01DX001 (ip), vehicle: carboxymethylcellulose (CMC) 95 % of control | dose: 400.0 mg/kg/injection, schedule: Q01DX001 (ip), vehicle: carboxymethylcellulose (CMC) 97 % of control

CC(=O)[S][Pb]([c]1ccccc1)([c]1ccccc1)[c]1ccccc1
inactive: dose: 1.0 mg/kg/injection, schedule: Q01DX009 (ip), vehicle: saline 93 % of control | dose: 2.0 mg/kg/injection, schedule: Q01DX009 (ip), vehicle: saline 93 % of control | dose: 4.0 mg/kg/injection, schedule: Q01DX009 (ip), vehicle: saline 95 % of control and 100 % of control | dose: 5.9 mg/kg/injection, schedule: Q01DX009 (ip), vehicle: saline 86 % of control

CN(C)CC/C(=N\Nc1ccc([N+](=O)[O-])cc1[N+](=O)[O-])c1ccccc1
inactive: [7] 94 % of control | [9] 92 % of control | [11] 92 % of control

CCC(=O)Nc1cc(C(F)(F)F)ccc1Cl
inactive: [19] 96 % of control | [8] 103 % of control | [20] 96 % of control | [10] 98 % of control | [21] 98 % of control | [12] 98 % of control

From PubChem BioAssay AID248 (DTP/NCI, 2004)
